In ChEMBL document CHEMBL3507680, “University of Dundee, Gates Library screen for HepG2 cell viability”:

assay: Human HepG2 cell viability assay in 384 well format; format: toxicity, cell-based; set-up: dose 125 nL, time 70.5 hour; concentration not given beside the values; details: HepG2 cells, read-out: Inhibition

Point of comparison: `Cc1noc(C)c1CN(C)Cc1cnc(N2CCOCC2)nc1`, cytotoxicity at 70.5 h -4.31%. Against it:
- O=C(Nc1nc2c(s1)CCC2)c1cccnc1N1CCOCC1 — higher, -0.827%
- CN(C)C(CNC(=O)c1cccc(C(N)=O)c1)c1ccccc1Cl (stereo not drawn) — higher, 3.17%
- CCN(Cc1ccoc1)C(=O)C1CCN(C(=O)OC(C)(C)C)C1 (stereo not drawn) — higher, 18.9%
- c1ccc(CN2CCC3(CC2)CCN(Cc2cccnc2)C3)nc1 — lower, -9.45%
- CCc1ncc2c(n1)CN(C(=O)Cc1cc(OC)cc(OC)c1)C2 — lower, -14%
- CCOC(=O)CC(NC(=O)c1cn(Cc2ccccc2F)nn1)C(C)C (stereo not drawn) — lower, -9.35%
- O=S(=O)(C1CC1)N1CCn2c(Cn3cncn3)cnc2C1 — higher, 0.357%
- CN(C)CCCNC(=O)c1cc(-c2ccc3c(c2)CCO3)n[nH]1 — higher, 10.7%
- CN(Cc1ccco1)[C@@H]1CN(Cc2cccnc2)[C@@H]2CCCO[C@H]12 — lower, -12.5%
- O=C(NCCSc1cnn[nH]1)c1c[nH]nc1C1CCCCC1 — higher, 1.5%
- CN(Cc1nnc(C2CC2)n1C)C1CCN(Cc2ccccc2F)C1 (stereo not drawn) — higher, -2.35%
- CCCC1(NC(=O)C(c2ccccc2C)N(C)C)CC1 (stereo not drawn) — lower, -5.65%
- Cc1cc(N(C)C)nc(N2CCCC2c2cc(C)on2)n1 (stereo not drawn) — higher, -1.73%
- CC(C)[C@H]1COC(=O)N1CC(=O)N1CCN(C(=O)c2ccco2)CC1 — higher, 8.43%
- CN(Cc1cc(Br)cn1C)C(=O)c1ccsc1 — lower, -7.08%
- Cc1nn(C)c(C)c1NC(=O)CCn1ncc2c(C)cccc21 — lower, -5.31%
- Cc1nc(N(C)C2CCCCC2)ncc1C(C)NC(=O)c1cscn1 (stereo not drawn) — higher, 1.66%
- CN(Cc1cnn(C)c1)C(=O)NC1CCN(c2ncccn2)CC1 — higher, 12.2%
- CNC(=O)N1CCCCC1CCNS(C)(=O)=O (stereo not drawn) — lower, -13.3%
- CNS(=O)(=O)c1ccc(F)c(C(=O)NCc2ccnc(OC)c2)c1 — higher, 25.8%
- CN1CCCC2(CC1)CCN(C(=O)CCc1ccccc1O)CC2 — higher, 6.16%
- CO[C@@H]1CN(c2ccccc2)S(=O)(=O)[C@@]12CCN(Cc1cncs1)C2 — higher, -2.7%
- Cc1cccc(CN2C[C@@H]3OCCN(c4cnccn4)[C@@H]3C2)n1 — lower, -4.63%
- OC(COCc1ccccc1)CN1CCC(Cn2cccn2)CC1 (stereo not drawn) — lower, -22.4%
- O=S(=O)(c1ccc(Cl)cc1)N1CCOC[C@H](Oc2cnccn2)C1 — higher, 0.0647%
- Cc1cc(F)ccc1S(=O)(=O)N1CCN(C)c2ccncc21 — higher, 4.79%
- O=C(CCc1ccccn1)NCC(O)c1ccc(Cl)cc1Cl (stereo not drawn) — higher, -1.56%
- CCN1CCN(Cc2c(-c3ccco3)[nH]c3ncccc23)CC1 — higher, -3.87%
- COC(=O)C(CNC(=O)Nc1nncs1)Cc1cccc(C)c1 (stereo not drawn) — higher, -3.4%
- CC(C)n1nc2c(cc1=O)CN(Cc1nc(-c3ccco3)no1)CC2 — lower, -5.7%
- O=C(c1cccnc1)N1C[C@@H]2OCCN(CCN3CCCC3)[C@@H]2C1 — lower, -10%
- Cc1noc(C)c1CN1C[C@@H]2COC[C@H](C(=O)N3CCOCC3)[C@@H]2C1 — lower, -8.43%
- CN(Cc1ncc[nH]1)CC1CCOc2ccccc2C1 (stereo not drawn) — higher, 2.48%
- CCc1ncnc(N2CCCC(c3cc(C(N)=O)[nH]n3)C2)c1F (stereo not drawn) — higher, -3.89%
- CCOCCOc1ccccc1C(=O)N1CCCC(c2ncc[nH]2)C1 (stereo not drawn) — lower, -5%
- CC(C)c1nc(/C=C/c2cnn(-c3ccc(Cl)cc3)c2)ncc1C(=O)O — higher, 22.7%
- C=C(C)COCCNC(=O)C1CCCN1C(C)=O (stereo not drawn) — lower, -13.6%
- Cc1cc(C)nc(NC2CCC(=O)N(C)C2)n1 (stereo not drawn) — lower, -8.23%
- CCNc1cc2c(nn1)CCN(C(=O)Cc1c(C)nn(C)c1C)C2 — higher, -2.18%
- Cc1cc(N2CCCN(C(=O)Cc3cc(F)cc(F)c3)CC2)ccn1 — higher, -1.71%
- CCC(CNS(=O)(=O)c1cccc(C(=O)OC)c1)N1CCCC1 (stereo not drawn) — lower, -10.7%
- Cc1ccc(C(=O)Nc2cc(C(C)C)n[nH]2)cn1 — higher, 31.4%
- CC(C)c1nc(C2CCCN2c2ncc(C(N)=O)cc2Cl)no1 (stereo not drawn) — higher, 12.4%
- c1cn(CC2CC2)c(C2CCN(CCC3CCOC3)CC2)n1 (stereo not drawn) — higher, 21.7%
- CC1CCN(CCCNS(=O)(=O)Cc2ccccc2F)CC1 — higher, 1.01%
- CCS(=O)(=O)N1C[C@H]2CN(Cc3cccnc3)C(=O)[C@H]2C1 — higher, 16.7%
- Cn1ccc(C(=O)N2CCC(Cc3cccc4ncccc34)CC2)n1 — lower, -6.71%
- COc1cccn(CC(=O)N(C)Cc2ccoc2)c1=O — higher, 1.59%
- CN(C)Cc1nc(-n2cnc(C(=O)NCC3CC3)c2)n2ccccc12 — higher, -3.22%
- Cc1n[nH]c(C2CN(Cc3nnc(C4CCC4)o3)CCO2)n1 (stereo not drawn) — higher, -1.02%
- CCn1cc(CN2CCCN(C(=O)CCc3ccccc3)CC2)cn1 — lower, -12.3%
- CN(CCc1ccccn1)C(=O)CCC1CCCN(c2ccncc2)C1 (stereo not drawn) — higher, 0%
- O=C(NC[C@H]1CC[C@H](c2ccnc3ncnn32)CC1)C1CC1 — higher, 22.4%
- Cc1ccccc1S(=O)(=O)Cc1nsc(N(C)C)n1 — higher, 0.131%
- Cc1c(CN2CCOCC2)c(O)n(CCO)c(=O)c1C#N — higher, 41%
- CCc1noc(CN2CCN(C(=O)N(C)C)CC2)n1 — higher, 20.5%
- CNCc1ccc(OCc2ccc3c(c2)OCCO3)cc1 — higher, -3.57%
- CCCNC(=O)CCC(=O)N1CCC(c2n[nH]c(C3CC3)n2)CC1 — higher, 21.7%
- O=C(NCC1CC1)[C@@H]1C[C@@H]2OCCN[C@@H]2C1 — higher, -2.73%
- Cc1cc2nc(SCC(=O)N3CCCC3)n(C)c(=O)c2[nH]1 — higher, -3.73%
- Cc1nnc([C@H]2CCN(CCCc3ccccc3)C2)o1 — higher, 8.95%
- COc1cccc(-c2cc(-c3nc(CN4CCN(C)CC4)no3)[nH]n2)c1 — higher, 6.39%
- Cc1nc(N2CCCC2)nc2c1CCN(Cc1nccn1C)CC2 — lower, -10.2%
- CCC(NC(=O)CN(C)Cc1ccc(C)o1)c1ccc(C)cc1 (stereo not drawn) — lower, -10.3%
- Cc1nc(N2CCN(C(=O)CC3CCCC3)CC2)c2cnn(C)c2n1 — higher, 0.786%
- CS(=O)(=O)CCc1ncnn1-c1ccc(F)c(Cl)c1 — higher, -2.51%
- CCC(C)N(Cc1cccnc1)Cc1ccccc1Cn1cccn1 (stereo not drawn) — lower, -9.31%
- Cc1cc(C)n(CCCC(=O)N2CCc3ncc(Cl)cc3C2)n1 — higher, 30.1%
- CC(C)(C)c1nc(CC(=O)N2CCCC(n3cncn3)C2)cs1 (stereo not drawn) — higher, -1.77%
- CCc1nn(C)c(CC)c1CNC(=O)Nc1cccc([S+](C)[O-])c1 (stereo not drawn) — higher, 14.6%
- CN(C)C(=O)CCS(=O)(=O)Cc1ccn(-c2cccc(F)c2)n1 — higher, 4.33%
- Cn1ccnc1-c1nccn1-c1cccc(CN2CCCC2)c1 — higher, 2.21%
- CC(=O)N(C)CCc1nc(-c2cc(C(N)=O)co2)cs1 — lower, -6.25%
- COCC1CN(Cc2ccccn2)Cc2cn(C)nc21 (stereo not drawn) — lower, -4.86%
- CCc1ccc2c(c1)C(CCNC(=O)Cc1ccc(F)cc1)C(=O)N2 (stereo not drawn) — higher, 11.8%
- O=C(O)[C@]12CCCN(CC3CCOC3)C[C@H]1CN(c1ncccn1)C2 (stereo partly drawn) — lower, -5.74%
- CC(Cn1ccnc1)NC(=O)NCc1ccccn1 (stereo not drawn) — lower, -15.6%
- Clc1ccccc1C1(c2ccnc(C3CC3)n2)CCNCC1 — higher, 48.5%
- Cn1cc(C(=O)N[C@@H]2CN(Cc3ccoc3)[C@@H]3CCCO[C@@H]32)cn1 — lower, -5.02%
- COCCCNC(=O)CCn1nc(C)c2ccccc21 — higher, -2.16%
- CC(C)NC(=O)C1(CC2CC(c3ccc(F)cc3)=NO2)CCNCC1 (stereo not drawn) — higher, 24.3%
- Cc1oc(C)c(C(=O)NCc2ccccc2S(=O)(=O)N(C)C)c1C — higher, -2.12%
- CCN(C)c1cc(CNC(=O)CNC(=O)CC2CCCCC2)ccn1 — lower, -16.4%
- NC1CCCc2c1cnn2-c1cc(F)cc(F)c1 (stereo not drawn) — lower, -4.65%
- O=C(O)[C@@H]1CN(Cc2c[nH]c(CC3CCCC3)n2)C[C@H]1c1ccccn1 — higher, 17.2%
- Cc1nnc(N2CCC(CCN(C)C)CC2)c(C#N)c1C — lower, -11.2%
- Cc1cc(CN2Cc3ccccc3CC2c2nnc(C)o2)no1 (stereo not drawn) — higher, 1.64%
- Cc1ccc(CN(C(=O)NCc2nnc3n2CCCCC3)C2CC2)o1 — lower, -10.9%
- O=C1CC2(CCCNC2)C(=O)N1Cc1cccc(F)c1 (stereo not drawn) — lower, -8.03%
- Cn1cnc2c1C(COCc1cccnc1)N(Cc1nccs1)CC2 (stereo not drawn) — higher, -1.3%
- CCOC(=O)NCCNC(=O)c1cc(Br)cn1C(C)C — higher, 9.21%
- CC1c2ncc(CNC(=O)C3CC3)n2CCN1Cc1ccncc1 (stereo not drawn) — lower, -16.1%
- CN(Cc1cccnc1)C1CC2(CCN(c3ncc(F)cn3)CC2)C1 — lower, -5.89%
- CN1CCCN(c2nccc(-c3c[nH]nc3C3CCCCC3)n2)CC1 — higher, -3.95%
- CN(Cc1cc(Br)cn1C)C(=O)c1cccnc1 — lower, -8.21%
- CCC(=O)Nc1ccc2c(c1)C1(CCOCC1)CN2CCOC — higher, 13.5%
- CC(C)C(C(=O)N1CCN(c2ccncc2)CC1)n1cncn1 (stereo not drawn) — lower, -7.42%
- NC(=O)CC1CCN(C(=O)NCc2ccc(-c3ccn[nH]3)cc2)CC1 — lower, -11.3%
- CC(=O)NCCNc1cc(C)nc2cc(C)nn12 — higher, 0.136%
- COCCN1C[C@@H]2CCCO[C@@H]2[C@H](N(C)Cc2ccco2)C1 — higher, -2.22%
- N[C@@H]1c2ccccc2C2(CCN(c3cnc4ccccc4n3)CC2)[C@H]1O — lower, -9.08%
- O=C(CCc1nc(-c2cccnc2)no1)N(CC1CCOC1)C1CC1 (stereo not drawn) — higher, 12%
- c1ccc(C2CN(C3CC3)CC3(CCN(Cc4cscn4)CC3)C2)cc1 (stereo not drawn) — lower, -5.25%
- Cc1nc(N2CCCC2)nc2c1CCN(C(=O)C1CCCCC1)CC2 — higher, -0.729%
- Cc1cc(C)n(C2CN(CC(O)c3cc(F)ccc3F)C2)n1 (stereo not drawn) — higher, 6.16%
- CN(C)C(=O)N1CCC(C2C(=O)Nc3ccccc32)CC1 (stereo not drawn) — lower, -10.4%
- Cc1ccc(N2CCCC(NCc3cccs3)C2)nn1 (stereo not drawn) — higher, -1.01%
- CNCC(=O)N1CCCC1c1n[nH]cc1-c1ccccc1F (stereo not drawn) — higher, 0.833%
- Cc1ccc(-c2c(C(=O)NC3CCN(C)CC3)csc2C)cc1 — lower, -9.95%
- O=C(Nc1nncs1)C1CSCN1C(=O)C1CCCC1 (stereo not drawn) — higher, -3.88%
- O=C(NC1CC1)N1CCOCC2(C1)CN(c1ccccc1)C(=O)CO2 (stereo not drawn) — lower, -9.6%
- Cc1ccc2c(c1)C1(CCNCC1)CC2OCC1CC1 (stereo not drawn) — higher, -1.43%
